In patent US20230142274A1 (SIMCERE PHARMACEUTICAL CO., LTD., priority 2020, published 2023):
Like-named read-outs stand apart in the source and are kept apart here.

Key:
[1] = Pharmacokinetic experiment in mouse; type: in vivo; conditions: female CB17-SCID mice; for half-life: mouse, plasma, read-out: Drug Elimination Half-life (converted)
Excerpt: CB17-SCID mice were purchased from Beijing Vital River Laboratory Animal Technology Co., Ltd.
DMSO, HP-β-CD (hydroxypropyl-β-cyclodextrin), PEG400 (polyethylene glycol 400), and Vitamin E TPGS (D-α-tocopherol polyethylene glycol 1000 succinate) were purchased from Sigma.
Six female CB17-SCID mice (20 g to 30 g, aged 4 to 6 weeks) were divided randomly into two groups, with 3 mice in each group. In Group 1, the compound in a vehicle of an aqueous solution containing 5% dimethyl sulfoxide and 95% hydroxypropyl-β-cyclodextrin (10%, w/v) was administered by intravenous injection via tail vein. In Group 2, a corresponding dose of the compound in a vehicle of an aqueous solution containing 30% polyethylene glycol 400 and 70% D-α-tocopherol polyethylene glycol 1000 succinate (10%, w/v) was orally administered. The animals were fed normally with food and water before experiment. The mice in each group underwent intravenous blood collection before administration and at 0.083 h (intravenous injection group only), 0.25 h, 0.5 h, 1 h, 2 h, 4 h, 6 h, 8 h, and 24 h after administration. The collected whole blood samples were placed in K2EDTA anticoagulation tubes and centrifuged for 5 min (4000 rpm, 4° C.) to collect the plasma for testing.
10 μL of the mouse plasma sample was taken, and 150 μL of acetonitrile solvent (containing the internal standard compound) was added to precipitate protein. After the resultant was vortexed for 0.5 min and centrifuged (4700 rpm, 4° C.) for 15 min, the supernatant was subjected to 2-fold dilution with water containing 0.05% (v/v) FA and was then subjected to quantitative measurement in LC-MS/MS system (AB Sciex Triple Quad 6500+). A calibration standard curve was prepared in CB17-SCID mouse plasma along with quality control samples to determine the plasma concentration. As for a 10× diluted sample, 2 μL of sample was taken and 18 μL of blank plasma was added. After being vortexed for 0.5 min, the mixture was added with 300 μL of acetonitrile solvent (containing the internal standard compound) so as to precipitate protein. The rest of the processing steps were the same as those for the undiluted samples.

[2] = system: CD-1 mouse plasma; assay: Plasma protein binding rate assay (equilibrium dialysis); type: in vitro ADME; conditions: compound 1 μM, equilibrium dialysis 6 hours at 37° C.
Procedure: 1. CD-1 mouse plasma (BioIVT)
1. Formulation of a buffer solution containing 100 mM sodium phosphate and 150 mM NaCl: An alkaline solution containing Na2HPO4 (14.2 g/L) and NaCl (8.77 g/L) was formulated with ultrapure water. An acidic solution containing NaH2PO4 (12.0 g/L) and NaCl (8.77 g/L) was formulated with ultrapure water. The alkaline solution was titrated with the acidic solution until the pH value was 7.4, thus formulating the buffer solution containing 100 mM sodium phosphate and 150 mM NaCl.
2. Preparation of dialysis membrane: The dialysis membrane was immersed in ultrapure water for 60 minutes to separate the membrane into two pieces, then immersed in 20% ethanol for 20 minutes, and finally immersed in a buffer for dialysis for 20 minutes.
3. Preparation of plasma: Frozen plasma was thawed rapidly at room temperature. Thereafter, the plasma was centrifuged at 3220 g for 10 minutes at 4° C. to remove clots, and the supernatant was collected into a new centrifuge tube. The pH values of plasma were measured and recorded. The plasma with a pH value of 7 to 8 was used.
4. Formulation of compound-containing plasma samples: A 10 mM stock solution of the compound of the present disclosure or the positive control compound was diluted with DMSO to obtain a 200 μM working solution. 3 μl of the 200 μM working solution of the compound was added into 597 μl of mouse plasma to obtain a plasma sample with a final concentration of 1 μM.
5. Steps of equilibrium dialysis: The dialysis device was assembled according to the operating instructions. 120 μL of a plasma sample containing 1 μM compound was added on one side of the dialysis membrane, and an equal volume of dialysate (phosphate buffer solution) was added on the other side. Duplicate samples were set in the experiment. The dialysis plate was sealed and placed in an incubation device where the samples were incubated at 37° C. in an atmosphere containing 5% CO2 for 6 hours with a rotational speed of about 100 rpm. After the incubation was complete, the sealing membrane was removed. 50 μl of samples were respectively aspirated from the buffer solution side and the plasma side of each well and transferred into different wells of a new plate. 50 μl of blank plasma was added into the sample obtained from the phosphate buffer solution side, and an equal volume of blank phosphate buffer solution was added into the plasma sample, followed by the addition of 300 μl of acetonitrile containing the internal standard to precipitate protein. The sample was vortexed for 5 minutes and centrifuged at 3220 g for 30 minutes at 4° C. 100 μl of the supernatant was aspirated and transferred to the sample plate, mixed well with 100 μL of ultrapure water, and used for LC-MS/MS analysis.
The peak areas of the compounds on the buffer solution side and the plasma side were determined. The formula for calculating the plasma protein binding rate of the compound was as follows:
% Free rate=(the ratio of the peak area of the compound to the peak area of the internal standard on the buffer solution side/the ratio of the peak area of the compound to the peak area of the internal standard on the plasma side)×100
% Binding rate=100−% free rate

COc1ccc(-c2ccc(-c3cnc([C@H]4CC[C@H](NC(=O)OC(C)C)CC4)s3)c([S@@](=N)(=O)C3CC3)c2)cn1 (stereo in doubt) [Example 94]
Drug Elimination Half-life ([1]; oral dose 25 mg/kg): 3.5 h
Drug Exposure ([1]; oral dose 25 mg/kg): 125.779 µg·h/mL
Max. Drug Conc. ([1]; oral dose 25 mg/kg): 19257 ng/mL
Peak Time of Drug Conc. ([1]; oral dose 25 mg/kg): 1.3 h
% Binding Rate [2]: 99.8%^

CC(C)OC(=O)Nc1ccc(-c2cnc([C@H]3CC[C@H](NC(=O)OC(C)C)CC3)s2)c(P(C)(C)=O)c1 [Example 1, isopropyl trans-N-[3-dimethylphosphoryl-4-[2-[4-(isopropoxycarbonylamino)cyclohexyl]thiazol-5-yl]phenyl]carbamate]
Drug Exposure ([1]; oral dose 80 mg/kg): 211.819 µg·h/mL
Max. Drug Conc. ([1]; oral dose 80 mg/kg): 14640 ng/mL
Peak Time of Drug Conc. ([1]; oral dose 80 mg/kg): 2.3 h
half-life ([1]; oral dose 80 mg/kg): 3.7 h
% Binding Rate [2]: 94%

CC(C)OC(=O)Nc1ccc(-c2cnc([C@H]3CC[C@H](NC(=O)OC(C)C)CC3)s2)c(S(=O)(=O)C(C)C)c1 [Example 2, isopropyl trans-N-[4-[2-[4-(isopropoxycarbonylamino)cyclohexyl]thiazol-5-yl]-3-isopropylsulfonyl-phenyl]carbamate]
% Binding Rate [2]: 99.4%^

CC(C)OC(=O)Nc1ccc(-c2cnc(C3CCC(NC(=O)OC(C)C)CC3)s2)c(S(=N)(=O)C(C)C)c1 (stereo not drawn) [Example 3, isopropyl trans-N-[4-[2-[4-(isopropoxycarbonylamino)cyclohexyl]thiazol-5-yl]-3-(isopropylsulfonimidoyl)phenyl]carbamate]
Drug Exposure ([1]; oral dose 80 mg/kg): 271.377 µg·h/mL
Max. Drug Conc. ([1]; oral dose 80 mg/kg): 15438 ng/mL
Peak Time of Drug Conc. ([1]; oral dose 80 mg/kg): 2.8 h
half-life ([1]; oral dose 80 mg/kg): 32 h
% Binding Rate [2]: 97%

CC(C)OC(=O)Nc1ccc(-c2cnc(C3CCC(NC(=O)OC(C)C)CC3)s2)c([S+]([O-])C(C)C)c1 (stereo not drawn) [Example 32, isopropyl trans-N-[4-[2-[4-(isopropoxycarbonylamino)cyclohexyl]thiazol-5-yl]-3-isopropylsulfinyl-phenyl]carbamate]
% Binding Rate [2]: 99%

CC(C)OC(=O)Nc1ccc(-c2cnc([C@H]3CC[C@H](NC(=O)OC(C)C)CC3)s2)c(S(=O)(=O)C2CC2)c1 [Example 33, isopropyl trans-N-[3-cyclopropylsulfonyl-4-[2-[4-(isopropoxycarbonylamino)cyclohexyl]thiazol-5-yl]phenyl]carbamate]
% Binding Rate [2]: 99%

Cc1cc(Nc2ccc(-c3cnc([C@H]4CC[C@H](NC(=O)OC(C)C)CC4)s3)c(P3(=O)CCCC3)c2)n[nH]1 [Example 47, isopropyl trans-N-[4-[5-[4-[(5-methyl-1H-pyrazol-3-yl)amino]-2-(1-oxidophospholan-1-yl)phenyl]thiazol-2-yl]cyclohexyl]carbamate]
% Binding Rate [2]: 99%

Cc1cc(Nc2ccc(-c3cnc([C@H]4CC[C@H](NC(=O)OC(C)C)CC4)s3)c(S(=O)(=O)C3CC3)c2)n[nH]1 [Example 48, isopropyl trans-(4-(5-(2-(cyclopropylsulfonyl)-4-((5-methyl-1H-pyrazol-3-yl)amino)phenyl)thiazol-2-yl)cyclohexyl)carbamate]
Drug Exposure ([1]; oral dose 30 mg/kg): 203.497 µg·h/mL
Max. Drug Conc. ([1]; oral dose 30 mg/kg): 17657 ng/mL
Peak Time of Drug Conc. ([1]; oral dose 30 mg/kg): 2 h
half-life ([1]; oral dose 30 mg/kg): 7.6 h
% Binding Rate [2]: 99%

Cc1cc(Nc2ccc(-c3cnc([C@H]4CC[C@H](NC(=O)OC(C)C)CC4)s3)c(S(=O)(=O)C3CC3)c2)nn1C [Example 49, isopropyl trans-(4-(5-(2-(cyclopropylsulfonyl)-4-((1,5-dimethyl-1H-pyrazol-3-yl)amino)phenyl)thiazol-2-yl)cyclohexyl)carbamate]
% Binding Rate [2]: 97%

Cc1cc(Nc2ccc(-c3cnc(C4CCC(NC(=O)OC(C)C)CC4)s3)c(S(=N)(=O)C3CC3)c2)n[nH]1 (stereo not drawn) [Example 50, isopropyl trans-N-[4-[5-[2-(cyclopropylsulfonimidoyl)-4-]((5-methyl-1H-pyrazol-3-yl)amino]phenyl]thiazol-2-yl]cyclohexyl]carbamate]
Drug Exposure ([1]; oral dose 25 mg/kg): 18.187 µg·h/mL
Max. Drug Conc. ([1]; oral dose 25 mg/kg): 4076 ng/mL
Peak Time of Drug Conc. ([1]; oral dose 25 mg/kg): 1 h
half-life ([1]; oral dose 25 mg/kg): 4.7 h
% Binding Rate [2]: 96%

CC(C)OC(=O)N[C@H]1CC[C@H](c2ncc(-c3ccc(Nc4cn(C)nn4)cc3S(=N)(=O)C3CC3)s2)CC1 (stereo partly shown) [Example 54]
Drug Exposure ([1]; oral dose 25 mg/kg): 47.683 µg·h/mL
Max. Drug Conc. ([1]; oral dose 25 mg/kg): 6698 ng/mL
Peak Time of Drug Conc. ([1]; oral dose 25 mg/kg): 1 h
half-life ([1]; oral dose 25 mg/kg): 3.1 h
% Binding Rate [2]: 95%

CC(C)OC(=O)N[C@H]1CC[C@H](c2ncc(-c3ccc(Nc4n[nH]c5ccccc45)cc3S(=O)(=O)C3CC3)s2)CC1 [Example 56, isopropyl trans-(4-(5-(4-((1H-indazol-3-yl)amino)-2-(cyclopropylsulfonyl)phenyl)thiazol-2-yl)cyclohexyl)carbamate]
% Binding Rate [2]: 97%

CC(C)OC(=O)N[C@H]1CC[C@H](c2ncc(-c3ccc(Nc4cc5ccccn5n4)cc3S(=O)(=O)C3CC3)s2)CC1 [Example 57, isopropyl trans-(4-(5-(2-(cyclopropylsulfonyl)-4-(pyrazolo[1,5-a]pyridin-2-ylamino)phenyl)thiazol-2-yl)cyclohexyl)carbamate]
% Binding Rate [2]: 99.9%^

CC(C)OC(=O)N[C@H]1CC[C@H](c2ncc(-c3ccc(NC(=O)NCc4ccccc4)cc3S(=N)(=O)C3CC3)s2)CC1 (stereo partly drawn) [Example 65, isopropyl trans-(4-(5-(4-(3-benzylureido)-2-(cyclopropanesulfonimidoyl)phenyl)thiazol-2-yl)cyclohexyl)carbamate]
% Binding Rate [2]: 97%

Cc1cc(Nc2ccc(-c3cnc([C@H]4CC[C@H](NC(=O)OC(C)C)CC4)s3)c(S(=N)(=O)C3CC3)c2)n(C)n1 (stereo partly drawn) [Example 98, isopropyl trans-(4-(5-(2-(cyclopropanesulfonimidoyl)-4-((1,3-dimethyl-1H-pyrazol-5-yl)amino)phenyl)thiazol-2-yl)cyclohexyl)carbamate]
% Binding Rate [2]: 99%

Cc1cc(Nc2ccc(-c3cnc([C@H]4CC[C@H](NC(=O)OC(C)C)CC4)s3)c(P3(=O)CCC3)c2)n[nH]1 [Example 103, isopropyl trans-(4-(5-(4-((5-methyl-1H-pyrazol-3-yl)amino)-2-(1-oxophosphetan-1-yl)phenyl)thiazol-2-yl)cyclohexyl)carbamate]
% Binding Rate [2]: 98%
